The CheMixHub viscosity set

Assay: xn = mol fraction of the nth substance listed

Cc1cccc(Cl)c1 + Nc1cccc(Cl)c1
viscosity [mPa·s], 100 kPa
Details | x2 = 0.0705 | x2 = 0.1546 | x2 = 0.2565 | x2 = 0.3413 | x2 = 0.4391 | x2 = 0.5101 | x2 = 0.6494 | x2 = 0.7592 | x2 = 0.8887
303.15 K | 0.9978 | 1.301 | 1.665 | 1.967 | 2.313 | 2.563 | 3.05 | 3.431 | 3.876
308.15 K | 0.9306 | 1.202 | 1.529 | 1.8 | 2.11 | 2.333 | 2.769 | 3.109 | 3.505
313.15 K | 0.8678 | 1.109 | 1.398 | 1.636 | 1.909 | 2.106 | 2.489 | 2.788 | 3.137
318.15 K | 0.8037 | 1.014 | 1.265 | 1.473 | 1.71 | 1.88 | 2.212 | 2.471 | 2.771

CCOCCO + Nc1ccccc1
303.15 K, 101 kPa
Details | viscosity [mPa·s]
x2 = 0.1062 | 2.266
x2 = 0.2109 | 2.394
x2 = 0.3142 | 2.523
x2 = 0.4162 | 2.74
x2 = 0.5167 | 2.94
x2 = 0.616 | 3.114
x2 = 0.7139 | 3.277
x2 = 0.8105 | 3.435
x2 = 0.9059 | 3.595

CC(C)CCCCCCCOC(=O)c1ccccc1C(=O)OCCCCCCCC(C)C + O
viscosity [mPa·s], 101 kPa
Details | 293.23 K | 298.26 K
x2 = 0.0005 | 122.8 | 87.79
x2 = 0.00265 | 122.3 | 87.38

CC(C)CCO + O
Details | viscosity [mPa·s]
293.15 K, 101.33 kPa, x1 = 0.0021 | 1.074
293.15 K, 101.33 kPa, x1 = 0.0042 | 1.123
293.15 K, 101.33 kPa, x1 = 0.0052 | 1.47
298.15 K, 101 kPa, x2 = 0.0019 | 3.738
298.15 K, 101 kPa, x2 = 0.0485 | 3.634
298.15 K, 101 kPa, x2 = 0.091 | 3.563
298.15 K, 101 kPa, x2 = 0.1325 | 3.518
298.15 K, 101 kPa, x2 = 0.1769 | 3.49
298.15 K, 101 kPa, x2 = 0.2065 | 3.482
298.15 K, 101 kPa, x2 = 0.2272 | 3.48
298.15 K, 101 kPa, x2 = 0.2538 | 3.486
298.15 K, 101 kPa, x2 = 0.3132 | 3.518
303.15 K, 101.33 kPa, x1 = 0.0021 | 0.851
303.15 K, 101.33 kPa, x1 = 0.0042 | 0.894
303.15 K, 101.33 kPa, x1 = 0.0052 | 0.907
313.15 K, 101.33 kPa, x1 = 0.0021 | 0.693
313.15 K, 101.33 kPa, x1 = 0.0042 | 0.721
323.15 K, 101.33 kPa, x1 = 0.0021 | 0.59
323.15 K, 101.33 kPa, x1 = 0.0042 | 0.617

C[C@@H](O)[C@H](N)C(=O)[O-].[Na+] + O
viscosity [mPa·s], 101 kPa
Details | x1 = 0.004484 | x1 = 0.008927 | x1 = 0.01333 | x1 = 0.0177 | x1 = 0.02202 | x1 = 0.02631 | x1 = 0.03478 | x1 = 0.0431 | x1 = 0.05127
293.15 K | 1.122 | 1.27 | 1.439 | 1.636 | 1.856 | 2.096 | 2.659 | 3.317 | 4.073
303.15 K | 0.9 | 1.012 | 1.138 | 1.279 | 1.425 | 1.594 | 1.993 | 2.414 | 2.986
313.15 K | 0.734 | 0.821 | 0.914 | 1.024 | 1.132 | 1.258 | 1.55 | 1.858 | 2.25
323.15 K | 0.612 | 0.681 | 0.755 | 0.84 | 0.925 | 1.021 | 1.242 | 1.482 | 1.767

[Ba+2].[Cl-].[Cl-] + O
viscosity [mPa·s], 101.3 kPa
Details | x1 = 0.0009 | x1 = 0.0018 | x1 = 0.00893 | x1 = 0.0125 | x1 = 0.0177 | x1 = 0.02116 | x1 = 0.02631
293.15 K | 1.016 | 1.027 | 1.123 | 1.174 | 1.261 | 1.325 | 1.43
298.15 K | 0.9041 | 0.9144 | 1.005 | 1.053 | 1.134 | 1.194 | 1.29
303.15 K | 0.8105 | 0.8204 | 0.9062 | 0.9513 | 1.027 | 1.082 | 1.171
308.15 K | 0.7315 | 0.7405 | 0.8219 | 0.8637 | 0.9352 | 0.9867 | 1.069
318.15 K | 0.6068 | 0.6141 | 0.688 | 0.725 | 0.788 | 0.8328 | 0.9047

c1ncncn1 + O
viscosity [mPa·s], 101 kPa
Details | x1 = 9.04e-05 | x1 = 0.0001902 | x1 = 0.0002698 | x1 = 0.0003238 | x1 = 0.0005432 | x1 = 0.0005796 | x1 = 0.0006388
293.15 K | 0.9241 | 0.9097 | 0.8902 | 0.8869 | 0.8968 | 0.8957 | 0.8944
298.15 K | 0.8187 | 0.8008 | 0.7878 | 0.7742 | 0.8122 | 0.8002 | 0.7864
303.15 K | 0.7307 | 0.7212 | 0.7162 | 0.71 | 0.7263 | 0.7135 | 0.6979
